“Also recorded” adds a separate entry of the source.
How the values were obtained:
[1] = test system: pyramidal neurons in the hippocampal CA3 area; test: Morphological observations of hippocampus of KA-treated mice (light microscopy); format: in vivo, mice (male CD2-FI); conditions: seven days following treatment; KA 40 mg/kg s.c. with or without 5 mg/kg compound I or melatonin; hematoxylin and eosin
Experimental: (§1) Kainic acid (KA) was employed to test the in vivo free radical scavenging and antioxidant activities of compound I. KA is an excitatory neurotoxin which destroys neuronal cells by free radical generation (Coyle and Schwarcz, Nature 263: 244-246 1976). Male CD2-FI mice (26-30 g) were chosen as the experimental subject. The mice were housed in windowless room with automatically regulated temperature 22±2° C. and 14 h light/10 h dark cycle. The mice received standard laboratory chow and water ad libitum. The mice were randomized into 4 groups.
Seven days following the treatment, representive mice in each of the groups mentioned above were sacrificed. The brains were immersed in normal fixation buffer. The hippocampi and surrounding tissue were dissected from the whole brain, cut and stained with hematoxylin and eosin. The morphological assessment of neuronal damage was determined by using light microscopy. In the brains of control mice no visible neuronal damage was observed. […] The induced neuronal damage was concentrated in the hippocampal CA3 area. The total histological architecture of CA3 area was altered. Virtually all of the pyrimadal neurons in this area were destroyed. The cell membranes appeared to have disintegrated and the nuclei of the cells were condensed and pyknotic. These changes are consistent with cell death. […] Few damaged neurons were observed microcopically in this area in these two groups (FIG. 6).

[2] = test system: brain lipid proxidation (MDA+4-HDA) in cerebral cortex; test: Brain oxidative damage test: lipid peroxidation product (LPO; MDA+4-HDA) in cerebral cortex of KA-treated mice; format: in vivo, mice (male CD2-FI); conditions: for level of LPO in brain (in words): KA 40 mg/kg s.c. plus compound I or melatonin 5 mg/kg i.p., 48 h, FIG. 5
Experimental: as §1
Forty-eight hours after treatment, 5 mice of each group were sacrificed and the cerebral cortex was excised and immediately placed on dry ice and stored at -80° C. for the lipid prooxidation product (LPO) assay. LPO is the most commonly used index of free radical damage and the assay used to measure the level of LPO is described in a kit avaliable from Calbiochem (LA Jolla, Calif.). LPO was expressed as malondialdehyde (MDA) and 4-hydroxyalkenals (4-HDA)/mg protein. The level of LPO in the cerebral cortex of mice in the control group was 3.47=0.18 nmol/mg protein; in KA injected mice the level of LPO was increased to 4.42=0.11 nmol/mg protein. This increase, when compared to the control mice, was great than 27% (p<0.05).

[3] = Hydroxyl radical scavenging: DMPO-HO. adduct formation (H2O2 + UV) measured by HPLC-EC; format: biochemical
Text: The hydroxyl radical (HO^.cndot.) is the most reactive and cytotoxic species among free radicals. […] Because of its high reactivity, HO^.cndot. once formed either in vitro or in vivo lasts for a very short time (half life about 10^-9 s) and, therefore, HO^.cndot. cannot be measured directly. However, by using a spin trapping agent, in this case 5,5-dimethylpyrroline-N-oxide (DMPO), an adduct (DMPO-HO^.cndot.) is formed between the spin trapping agent and the HO^.cndot.. The adducts have a longer half life and therefore they can be more readily quantified.
When DMPO is incubated in this system the DMPO will traps the HO^.cndot. to form a relatively stable DMPO- HO^.cndot. adduct.
HO^.cndot. +DMPO→DMPO-HO^.cndot.
In the present study, the DMPO-HO^.cndot. adduct was detected by an electro-chemical (EC) detector attached to a high performance liquid chromatography (HPLC) system. […] The applied potential was 1.0 volt and volume of the injected sample was 20 μl.

[4] = test system: KA-induced neurobehavioral activities and death in mice; test: Neurobehavioral activities and death induced by kainic acid in mice; format: in vivo, mice (male CD2-FI); conditions: for Incidence, Seizures / Incidence, Tail arch / Incidence, Tremors / Incidence, Death (death rate): KA 40 mg/kg s.c., compound I or melatonin 5 mg/kg i.p. 10 min before KA, n=15; for Incidence, Seizures / Incidence, Tail arch / Incidence, Tremors: 4 h observation
Experimental: as §1
Immediately following the injections, neurobehavioral changes were monitored. The observation period extended for 4 hours following the injections. The death rate at 48 hours was recorded. […] By contrast, all of the mice that received KA developed some neurobehavioral changes including arching of tail, tremors and seizures. The death rate in this group was 33%. […] Tremors and seizures decreased from 100% in the KA-treated mice to 40% (p=0.001), respectively,and the death rate was reduced to 20%.

[5] = test system: experimental animal life span; conditions: Pierpaoli and Regelson, Proc. Natl. Acad. Sci. USA 91: 787-791 1994; up to; cited from earlier work
[6] = background statement; cited from earlier work

Row | Structure (SMILES) | morphological assessment of neuronal damage, hippocampal CA3 area [1] | level of LPO in brain (in words) [2] | suppression of DMPO-HO. adduct formation (in words) ([3]; compared with melatonin, FIG. 3, dose-response, FIG. 4) | IC50 ([3]; read-out: IC50 (concentration required to produce 50% inhibition of the DMPO-HO. formation), H2O2 + UV (254 nm), DMPO spin trap, HPLC-EC) [µM] | Incidence, Seizures [4] [%] | Incidence, Tail arch [4] [%] | Incidence, Tremors [4] [%] | Death (in words) ([4]; at 48 hours, KA 40 mg/kg s.c. plus compound I 5 mg/kg i.p.) | Incidence, Death (death rate) ([4]; at 48 hours) [%] | increase of LPO level compared to control mice ([2]; 48 h after KA 40 mg/kg s.c., p<0.05) [%] | prolongation of experimental animal life span [5] | biological half life in the blood [6]
1 | COc1cc2[nH]cc(CCNC(C)=O)c2cc1OC [Compound I, N-acetyl-5,6-dimethoxytryptamine] | No obviously neuronal damage is observed; also recorded: the hippocampal CA3 area of the brain was still intact | reduced to control levels | efficacy is greater than that of melatonin | 15 | 20 | 40 | 40 | none of them died | 0 | – | – | –
2 | C=C(C)[C@H]1CN[C@H](C(=O)O)[C@H]1CC(=O)O [KA] | The morphological architecture of neurons in the hippocampal CA3 region were destroyed; also recorded: the pyramidal neurons of the hippocampus were severely damaged | – | – | – | 100 | 86 | 100 | – | 33 | > 27 | – | –
3 | COc1ccc2[nH]cc(CCNC(C)=O)c2c1 [melatonin] | No obviously neuronal damage is observed; also recorded: the hippocampal CA3 area of the brain was still intact | reduced to control levels | – | – | 40 | 33 | 40 | – | 20 | – | up to 27% | 20-40 min

Reference: patent publication US6114373A, “N-acetyl-5,6-dimethoxytryptamine and its free radical scavenging activity” (priority 1998, dated 2000)
